Target: T1, GPR6 receptor expressed in CHO-K1 cells (Homo sapiens, UniProt P46095)
T1 construct: expressed in transfected cells
Assay: Inhibition of cAMP Activity of GPR6 In Vitro Assay
Assay type: cell-based
Details: inhibition of constitutive cAMP activity of GPR6 in CHO-K1 cells, 45 min incubation, HTRF cAMP detection
Method: Inhibition of cAMP Activity of GPR6 In Vitro Assay
This cell based assay measures the ability of compounds to inhibit the constitutive cAMP activity of GPR6 receptor expressed in CHO-K1 cells. CHO cells were stably expressed with GPR6 receptor, whose expression is controlled by a tetracycline inducable element. The cells were cultured in medium containing F12K, 10% FBS, 1% Penn/Strep, 200 ug/mL Hygromycin. GPR6 receptor expression was induced for 20 hrs with 2 µg/ml doxycycline (sigma D9891) in growth media. After addition of doxycycline cells were plated at a density of 450-750 cells per well in 96-well half-volume black tissue culture plates (Costar) and placed in an incubator (37°, 5% CO2) for 20 hours prior to cAMP assays.
Culture media was removed from cells and they were washed with 50 µL/well of Ringer's Buffer (MgCl2 0.047 mg/mL, NaH2PO4 0.18 mg/mL, Na2HPO4 0.1 mg/mL, KCl 0.34 mg/mL, NaHCO3 1.26 mg/mL, D-glucose 1.8 mg/mL, NaCl 7 mg/mL; pH=7.4). Compounds suspended in DMSO were diluted in Ringer's Buffer containing 0.5% fatty acid free BSA plus 300 μM IBMX and incubated on cells for 45 min at 37° and 5% CO2. After incubation cells were incubated for 10 min at room temp with Eu-cAMP tracer solution from a Perkin Elmer Lance HTRF Ultra cAMP assay kit (TRF0263). Then ULight™-anti-cAMP solution from the Lance HTRF kit was added and incubated on a shaker at room temp for 1 hour prior to HTRF detection in a Perkin Elmer Envision plate reader.
IC50 curves were generated with a four-parameter logistic equation using GraphPad Prism 5.03.

T1 sequence (P46095 whole entry): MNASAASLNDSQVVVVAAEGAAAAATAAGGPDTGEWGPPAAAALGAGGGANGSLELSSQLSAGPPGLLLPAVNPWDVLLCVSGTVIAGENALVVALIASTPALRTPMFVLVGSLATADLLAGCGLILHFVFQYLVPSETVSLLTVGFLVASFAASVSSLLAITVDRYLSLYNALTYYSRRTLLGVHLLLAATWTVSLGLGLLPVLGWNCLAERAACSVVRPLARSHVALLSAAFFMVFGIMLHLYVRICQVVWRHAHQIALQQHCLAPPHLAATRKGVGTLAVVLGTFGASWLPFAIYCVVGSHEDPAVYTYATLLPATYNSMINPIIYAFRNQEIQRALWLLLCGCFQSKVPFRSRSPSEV

SMILES	EC50
Cc1cc2nc(N3CCN(Cc4ccc(F)cc4F)CC3)c(N[C@H]3CCOC3)nc2cn1 [Example 32, (S)-2-(4-(2,4-difluorobenzyl)piperazin-1-yl)-7-methyl-N-(tetrahydrofuran-3-yl)pyrido[3,4-b]pyrazin-3-amine]	326 nM
COc1ccc(CN2CCN(c3nc4cnc(C)cc4nc3N[C@H]3CCOC3)CC2)c(F)c1 [Example 25, (S)-3-(4-(2-fluoro-4-methoxybenzyl)piperazin-1-yl)-7-methyl-N-(tetrahydrofuran-3-yl)pyrido[3,4-b]pyrazin-2-amine]	278 nM
Cc1cc2nc(N[C@H]3CCOC3)c(N3CCN(Cc4ccc(F)cc4F)CC3)nc2cn1 [Example 3]	88.2 nM
Cc1cc2nc(N[C@@H]3CCOC3)c(N3CCN(Cc4ccc(OC(F)F)cc4F)CC3)nc2cn1 [Example 28, (R)-3-(4-(4-(difluoromethoxy)-2-fluorobenzyl)piperazin-1-yl)-7-methyl-N-(tetrahydrofuran-3-yl)pyrido[3,4-b]pyrazin-2-amine]	> 1000 nM
Cc1cc2nc(NC(C)C)c(N3CCN(Cc4ccc(F)cc4F)CC3)nc2cn1 [Example 1, 3-(4-(2,4-difluorobenzyl)piperazin-1-yl)-N-isopropyl-7-methylpyrido[3,4-b]pyrazin-2-amine]	59.4 nM
Cc1cc2nc(N3CCN(Cc4ccc(F)cc4F)CC3)c(NC3COC3)nc2cn1 [Example 50, 2-(4-(2,4-difluorobenzyl)piperazin-1-yl)-7-methyl-N-(oxetan-3-yl)pyrido[3,4-b]pyrazin-3-amine]	164 nM
Cc1cc2nc(NC(C)C)c(N3CCC(Oc4ccc(F)cc4F)CC3)nc2cn1 [Example 2, 3-(4-(2,4-difluorophenoxy)piperidin-1-yl)-N-isopropyl-7-methylpyrido[3,4-b]pyrazin-2-amine]	16.5 nM
Cc1cc2nc(N[C@H]3C[C@H](O)C3)c(N3CCN(Cc4ccc(F)cc4F)CC3)nc2cn1 [Example 14, trans-3-((3-(4-(2,4-difluorobenzyl)piperazin-1-yl)-7-methylpyrido[3,4-b]pyrazin-2-yl)amino)cyclobutanol]	75.2 nM
Cc1cc2nc(NC(C)C)c(N3CCC(Oc4ccc(OC(F)F)cc4F)CC3)nc2cn1 [Example 18, 3-(4-(4-(difluoromethoxy)-2-fluorophenoxy)piperidin-1-yl)-N-isopropyl-7-methylpyrido[3,4-b]pyrazin-2-amine]	39.9 nM
Cc1cc2nc(N[C@H]3C[C@@H](O)C3)c(N3CCN(Cc4ccc(F)cc4F)CC3)nc2cn1 [Example 10, cis-3-((3-(4-(2,4-difluorobenzyl)piperazin-1-yl)-7-methylpyrido[3,4-b]pyrazin-2-yl)amino)cyclobutanol]	69.3 nM
Cc1cc2nc(N3CCN(Cc4ccc(F)cc4F)CC3)c(NC(C)C)nc2cn1 [Example 30, 2-(4-(2,4-difluorobenzyl)piperazin-1-yl)-N-isopropyl-7-methylpyrido[3,4-b]pyrazin-3-amine 2,2,2-trifluoroacetate]	80.1 nM
COc1ccc(CN2CCN(c3nc4cc(C)ncc4nc3NC(C)C)CC2)c(F)c1 [Example 42, 2-(4-(2-fluoro-4-methoxybenzyl)piperazin-1-yl)-N-isopropyl-7-methylpyrido[3,4-b]pyrazin-3-amine]	276 nM
Cc1cc2nc(N3CCN(Cc4ccc(F)cc4F)CC3)c(NC3CC3)nc2cn1 [Example 31, N-cyclopropyl-2-(4-(2,4-difluorobenzyl)piperazin-1-yl)-7-methylpyrido[3,4-b]pyrazin-3-amine 2,2,2-trifluoroacetate]	188 nM
Cc1cc2nc(N3CCC(Oc4ccc(F)cc4F)CC3)c(NC(C)C)nc2cn1 [Example 35, 2-(4-(2,4-difluorophenoxy)piperidin-1-yl)-N-isopropyl-7-methylpyrido[3,4-b]pyrazin-3-amine]	66.4 nM
Cc1cc2nc(N[C@H]3C[C@H](F)C3)c(N3CCN(Cc4ccc(F)cc4F)CC3)nc2cn1 [Example 12, trans-3-(4-(2,4-difluorobenzyl)piperazin-1-yl)-N-(3-fluorocyclobutyl)-7-methylpyrido[3,4-b]pyrazin-2-amine]	49.4 nM
Cc1cc2nc(NC(C)C)c(N3CCN(Cc4ccc(OC(F)F)cc4F)CC3)nc2cn1 [Example 26, 3-(4-(4-(difluoromethoxy)-2-fluorobenzyl)piperazin-1-yl)-N-isopropyl-7-methylpyrido[3,4-b]pyrazin-2-amine]	466 nM

The remaining lines, values ahead:

EC50	SMILES
61.4 nM	Cc1cc2nc(N[C@H]3C[C@H](F)C3)c(N3CCC(Oc4ccc(F)cc4F)CC3)nc2cn1 [Example 11, trans-3-(4-(2,4-difluorophenoxy)piperidin-1-yl)-N-(3-fluorocyclobutyl)-7-methylpyrido[3,4-b]pyrazin-2-amino]
52.3 nM	Cc1cc2nc(N[C@H]3C[C@@H](O)C3)c(N3CCC(Oc4ccc(F)cc4F)CC3)nc2cn1 [Example 9, cis-3-((3-(4-(2,4-difluorophenoxy)piperidin-1-yl)-7-methylpyrido[3,4-b]pyrazin-2-yl)amino)cyclobutanol]
48.2 nM	Cc1cc2nc(N[C@H]3C[C@H](O)C3)c(N3CCC(Oc4ccc(F)cc4F)CC3)nc2cn1 [Example 13, trans-3-((3-(4-(2,4-difluorophenoxy)piperidin-1-yl)-7-methylpyrido[3,4-b]pyrazin-2-yl)amino)cyclobutanol]
81.4 nM	Cc1cc2nc(N[C@@H]3CCOC3)c(N3CCC(Oc4ccc(OC(F)F)cc4F)CC3)nc2cn1 [Example 20, (R)-3-(4-(4-(difluoromethoxy)-2-fluorophenoxy)piperidin-1-yl)-7-methyl-N-(tetrahydrofuran-3-yl)pyrido[3,4-b]pyrazin-2-amine]
128 nM	Cc1cc2nc(N3CCC(Oc4ccc(F)cc4F)CC3)c(N[C@H]3CCOC3)nc2cn1 [Example 37, (S)-2-(4-(2,4-difluorophenoxy)piperidin-1-yl)-7-methyl-N-(tetrahydrofuran-3-yl)pyrido[3,4-b]pyrazin-3-amine]
162 nM	Cc1cc2nc(N[C@H]3CCOC3)c(N3CCC(Oc4ccc(OC(F)F)cc4F)CC3)nc2cn1 [Example 21, (S)-3-(4-(4-(difluoromethoxy)-2-fluorophenoxy)piperidin-1-yl)-7-methyl-N-(tetrahydrofuran-3-yl)pyrido[3,4-b]pyrazin-2-amine]
18.5 nM	COc1ccc(OC2CCN(c3nc4cnc(C)cc4nc3NC3CC3)CC2)c(F)c1 [Example 8, N-cyclopropyl-3-(4-(2-fluoro-4-methoxyphenoxy)piperidin-1-yl)-7-methylpyrido[3,4-b]pyrazin-2-amine 2,2,2-trifluoroacetate]
49.6 nM	Cc1cc2nc(N[C@H]3CCOC3)c(N3CCC(Oc4ccc(F)cc4F)CC3)nc2cn1 [Example 4, (S)-3-(4-(2,4-difluorophenoxy)piperidin-1-yl)-7-methyl-N-(tetrahydrofuran-3-yl)pyrido[3,4-b]pyrazin-2-amine]
309 nM	Cc1cc2nc(N3CCC(Oc4ccc(OC(F)F)cc4F)CC3)c(NC(C)C)nc2cn1 [Example 38, 2-(4-(4-(difluoromethoxy)-2-fluorophenoxy)piperidin-1-yl)-N-isopropyl-7-methylpyrido[3,4-b]pyrazin-3-amine]
> 1000 nM	Cc1cc2nc(N3CCC(Oc4ccc(OC(F)F)cc4F)CC3)c(N[C@H]3CCOC3)nc2cn1 [Example 41, (S)-2-(4-(4-(difluoromethoxy)-2-fluorophenoxy)piperidin-1-yl)-7-methyl-N-(tetrahydrofuran-3-yl)pyrido[3,4-b]pyrazin-3-amine]
> 1000 nM	COc1ccc(CN2CCN(c3nc4cc(C)ncc4nc3NC3CC3)CC2)c(F)c1 [Example 43, N-cyclopropyl-2-(4-(2-fluoro-4-methoxybenzyl)piperazin-1-yl)-7-methylpyrido[3,4-b]pyrazin-3-amine]
> 5000 nM	Cc1cc2nc(N3CCC(Oc4ccc(OC(F)F)cc4F)CC3)c(NC3CC3)nc2cn1 [Example 39, N-cyclopropyl-2-(4-(4-(difluoromethoxy)-2-fluorophenoxy)piperidin-1-yl)-7-methylpyrido[3,4-b]pyrazin-3-amine]
30.1 nM	Cc1cc2nc(N[C@@H]3CCOC3)c(N3CCC(Oc4ccc(F)cc4F)CC3)nc2cn1 [Example 5, (R)-3-(4-(2,4-difluorophenoxy)piperidin-1-yl)-7-methyl-N-(tetrahydrofuran-3-yl)pyrido[3,4-b]pyrazin-2-amine]
94.9 nM	Cc1cc2nc(N3CCC(Oc4ccc(F)cc4F)CC3)c(NC3CC3)nc2cn1 [Example 34, N-cyclopropyl-2-(4-(2,4-difluorophenoxy)piperidin-1-yl)-7-methylpyrido[3,4-b]pyrazin-3-amine]
158 nM	COc1ccc(CN2CCN(c3nc4cnc(C)cc4nc3NC3CC3)CC2)c(F)c1 [Example 23, N-cyclopropyl-3-(4-(2-fluoro-4-methoxybenzyl)piperazin-1-yl)-7-methylpyrido[3,4-b]pyrazin-2-amine]
